From patent US10722514B2 (FLX Bio, Inc., priority 2017, dated 2020)

These compounds were tested against T1, recombinant full-length USP7 (Homo sapiens, UniProt Q93009) (assay: USP7-mediated ubiquitin-rhodamine cleavage assay). Settings: recombinant full-length USP7 62 pM; ubiquitin-rhodamine 100 nM; 30-minute incubation with compound, 1 hour reaction at room temperature; read-out: Potency: USP7 IC50.
T1 construct: A 25 μl reaction volume containing recombinant full-length USP7 (62 pM)
Type: biochemical
Outline: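 Rhodamine fluorescence read-out after acetic acid stop; IC50 by 4-parameter nonlinear regression. Enzyme at 62 pM, substrate ubiquitin-rhodamine 100 nM final, 1 h at room temperature in the dark, after 30 min compound preincubation. Buffer: HEPES pH 7.3, NaCl, TCEP, BSA; 1% DMSO.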

T1 sequence (Q93009 whole entry): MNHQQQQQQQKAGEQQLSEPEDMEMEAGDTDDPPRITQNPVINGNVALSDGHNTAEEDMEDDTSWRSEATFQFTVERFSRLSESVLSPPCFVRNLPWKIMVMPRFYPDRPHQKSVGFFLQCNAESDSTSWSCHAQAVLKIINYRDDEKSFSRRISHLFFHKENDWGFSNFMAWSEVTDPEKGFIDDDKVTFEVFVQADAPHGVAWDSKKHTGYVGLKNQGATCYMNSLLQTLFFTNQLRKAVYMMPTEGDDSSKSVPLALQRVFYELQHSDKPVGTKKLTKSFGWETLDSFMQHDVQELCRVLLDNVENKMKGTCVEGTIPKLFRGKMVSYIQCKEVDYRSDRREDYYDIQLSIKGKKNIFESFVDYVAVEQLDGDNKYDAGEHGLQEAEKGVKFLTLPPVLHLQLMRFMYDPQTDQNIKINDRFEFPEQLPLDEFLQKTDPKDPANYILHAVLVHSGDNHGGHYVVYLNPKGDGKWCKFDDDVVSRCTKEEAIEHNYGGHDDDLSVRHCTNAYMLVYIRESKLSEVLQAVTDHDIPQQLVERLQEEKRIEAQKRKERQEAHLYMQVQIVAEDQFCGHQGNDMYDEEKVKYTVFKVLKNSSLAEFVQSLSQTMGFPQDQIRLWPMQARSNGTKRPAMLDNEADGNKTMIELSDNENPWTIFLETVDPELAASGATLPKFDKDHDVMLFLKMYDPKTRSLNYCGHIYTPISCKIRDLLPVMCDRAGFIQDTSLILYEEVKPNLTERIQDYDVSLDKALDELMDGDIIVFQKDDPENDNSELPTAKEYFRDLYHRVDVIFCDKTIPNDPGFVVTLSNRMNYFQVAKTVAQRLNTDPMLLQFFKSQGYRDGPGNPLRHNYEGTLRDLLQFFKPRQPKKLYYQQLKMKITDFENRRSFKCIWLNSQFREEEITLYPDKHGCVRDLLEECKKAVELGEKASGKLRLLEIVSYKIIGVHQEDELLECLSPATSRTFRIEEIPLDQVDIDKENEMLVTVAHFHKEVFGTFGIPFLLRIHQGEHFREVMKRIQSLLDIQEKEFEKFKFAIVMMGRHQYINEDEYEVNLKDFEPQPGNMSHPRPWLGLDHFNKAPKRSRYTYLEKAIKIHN

| SMILES | IC50 |
| --- | --- |
| Cc1cc(Cl)cc(-c2ccnc3cc(CO)sc23)c1O[C@@H]1CC[C@H](N)C1 [Example 89, (7-(2-(((1R,3S)-3-Aminocyclopentyl)oxy)-5-chloro-3-methylphenyl)thieno[3,2-b]pyridin-2-yl)methanol] | 10000 to 30000 nM |
| Cc1cc(Cl)cc(-c2ccnc3cc([C@H](C)N4C(=O)CCC4=O)sc23)c1OC1CCNCC1 [Example 1, (S)-1-(1-(7-(5-Chloro-3-methyl-2-(piperidin-4-yloxy)phenyl)thieno[3,2-b]pyridin-2-yl)ethyl)pyrrolidine-2,5-dione] | 1000 to 10000 nM |
| Cc1cc(Cl)cc(-c2ccnc3cc(CN4C(=O)CCC4=O)sc23)c1O[C@@H]1CN[C@@H](C(F)F)C1 [Example 125, 1-((7-(5-Chloro-2-(((3S,5R)-5-(difluoromethyl)pyrrolidin-3-yl)oxy)-3-methylphenyl)thieno[3,2-b]pyridin-2-yl)methyl)pyrrolidine-2,5-dione] | 1000 to 10000 nM |
| Cc1cc(Cl)cc(-c2ccnc3cc(CN4C(=O)CCC4=O)sc23)c1OC1CNC(C)(C)C1 (stereo not shown) [Example 130, 1-((7-(5-Chloro-2-((5,5-dimethylpyrrolidin-3-yl)oxy)-3-methylphenyl)thieno[3,2-b]pyridin-2-yl)methyl)pyrrolidine-2,5-dione] | < 1000 nM |
| O=C1CCC(=O)N1Cc1cc2nccc(-c3cc(Cl)ccc3O[C@@H]3CNC[C@@H]3F)c2s1 [Example 119, 1-((7-(5-Chloro-2-(((3R,4S)-4-fluoropyrrolidin-3-yl)oxy)phenyl)thieno[3,2-b]pyridin-2-yl)methyl)pyrrolidine-2,5-dione] | 1000 to 10000 nM |
| Cc1cc(Cl)cc(-c2ccnc3cc(CO)sc23)c1O[C@@H]1CN[C@H](C(C)(C)O)C1 [Example 72, 2-((2S,4S)-4-(4-Chloro-2-(2-(hydroxymethyl)thieno[3,2-b]pyridin-7-yl)-6-methylphenoxy)pyrrolidin-2-yl)propan-2-ol] | 1000 to 10000 nM |
| Cc1cc(Cl)cc(-c2ncnc3cc(CN4C(=O)C5C(C4=O)C5(C)C)sc23)c1OC1CC(N)C1 (stereo not shown) [Example 358, 3-[[4-[2-(3-aminocyclobutoxy)-5-chloro-3-methyl-phenyl]thieno[3,2-d]pyrimidin-6-yl]methyl]-6,6-dimethyl-3-azabicyclo[3.1.0]hexane-2,4-dione; 2,2,2-trifluoroacetic acid] | < 1000 nM |
| Cc1cc(Cl)cc(-c2ccnc3cc(CO)sc23)c1O[C@@H]1CN[C@H](C)C1 [Example 62, (7-(5-Chloro-3-methyl-2-(((3S,5R)-5-methylpyrrolidin-3-yl)oxy)phenyl)thieno[3,2-b]pyridin-2-yl)methanol] | 10000 to 30000 nM |
| Cc1cc(C#N)cc(-c2ccnc3cc(CO)sc23)c1OCC1(C)CNC1 [Example 43, 3-(2-(Hydroxymethyl)thieno[3,2-b]pyridin-7-yl)-5-methyl-4-((3-methylazetidin-3-yl)methoxy)benzonitrile] | 1000 to 10000 nM |
| Cc1cc(Cl)cc(-c2ccnc3cc(Cn4c(=O)ccn(CC(F)(F)F)c4=O)sc23)c1OC1CNC1 [Example 61, 3-((7-(2-(Azetidin-3-yloxy)-5-chloro-3-methylphenyl)thieno[3,2-b]pyridin-2-yl)methyl)-1-(2,2,2-trifluoroethyl)pyrimidine-2,4(1H,3H)-dione] | < 1000 nM |

Next, values leading:

| IC50 | SMILES |
| --- | --- |
| < 1000 nM | Cc1cc(Cl)cc(-c2ccnc3cc(CN4C(=O)CCC4=O)sc23)c1O[C@@H]1C[C@H]2CN[C@@H]1C2 [Example 298, 1-[[7-[2-[[(1S,4R,5R)-3-azabicyclo[2.2.1]heptan-5-yl]oxy]-5-chloro-3-methyl-phenyl]thieno[3,2-b]pyridin-2-yl]methyl]pyrrolidine-2,5-dione] |
| < 1000 nM | Cc1cc(Cl)cc(-c2ccnc3cc(Cn4c(=O)ccn(CC(F)(F)F)c4=O)sc23)c1O[C@@H]1CCNC[C@H]1C [Example 275, 3-((7-(5-Chloro-3-methyl-2-(((3R,4R)-3-methylpiperidin-4-yl)oxy)phenyl)thieno[3,2-b]pyridin-2-yl)methyl)-1-(2,2,2-trifluoroethyl)pyrimidine-2,4(1H,3H)-dione] |
| < 1000 nM | Cc1cc(Cl)cc(-c2ccnc3cc(CN4C(=O)CCC4=O)sc23)c1OC1CCN(C)CC1 [Example 216, 1-((7-(5-Chloro-3-methyl-2-((I-methylpiperidin-4-yl)oxy)phenyl)thieno[3,2-b]pyridin-2-yl)methyl)pyrrolidine-2,5-dione] |
| 1000 to 10000 nM | O=C1CNC(=O)N1Cc1cc2ncnc(-c3cccc(OC(F)(F)F)c3)c2s1 [Example 403, 3-[[4-[3-(trifluoromethoxy)phenyl]thieno[3,2-d]pyrimidin-6-yl]methyl]imidazolidine-2,4-dione] |

Same assay, conditions: recombinant full-length USP7 62 pM; ubiquitin-rhodamine 100 nM; 30-minute incubation, 1 hour reaction at room temperature; read-out: Potency (USP7 IC50)

| SMILES | IC50 |
| --- | --- |
| Cc1cc(Cl)cc(-c2ccnc3cc(Cn4c(=O)ccn(CC(F)(F)F)c4=O)sc23)c1OC1CCC(F)(F)CC1 [Example 682, 3-[[7-[5-chloro-2-(4,4-difluorocycllohexoxy)-3-methyl-phenyl]thieno[3,2-b]pyridin-2-yl]methyl]-1-(2,2,2-trifluoroethyl)pyrimidine-2,4-dione] | < 1000 nM |
| Cc1cc(Cl)cc(-c2ccnc3cc(Cn4c(=O)ccn(CC(F)(F)F)c4=O)sc23)c1OCC1(C(F)F)CNC1 [Example 673, 3-[[7-[5-chloro-2-[[3-(difluoromethyl)azetidin-3-yl]methoxy]-3-methyl-phenyl]thieno[3,2-b]pyridin-2-yl]methyl]-1-(2,2,2-trifluoroethyl)pyrimidine-2,4-dione] | < 1000 nM |
| Cc1cc(Cl)cc(-c2ccnc3cc(Cn4c(=O)ccn(CC(F)(F)F)c4=O)sc23)c1OC1CC(O)C1 (stereo not shown) [Example 678, 3-[[7-[5-chloro-2-(3-hydroxycyclobutoxy)-3-methyl-phenyl]thieno[3,2-b]pyridin-2-yl]methyl]-1-(2,2,2-trifluoroethyl)pyrimidine-2,4-dione] | < 1000 nM |

Same assay, conditions: recombinant full-length USP7 62 pM; ubiquitin-rhodamine 100 nM; 30-minute pre-incubation, 1 hour reaction at room temperature; read-out: Potency (USP7 IC50)

| SMILES | IC50 |
| --- | --- |
| Cc1cc(Cl)cc(-c2ccnc3cc(Cn4c(=O)ccn(C)c4=O)sc23)c1OC1CCCN(C)C1 (stereo not shown) [Example 503, 3-[[7-[5-chloro-3-methyl-2-[(1-methyl-3-piperidyl)oxy]phenyl]thieno[3,2-b]pyridin-2-yl]methyl]-1-methyl-pyrimidine-2,4-dione] | < 1000 nM |
| Cc1cc(Cl)cc(-c2ccnc3cc(Cn4c(=O)ccn(CC(F)(F)F)c4=O)sc23)c1OC1CCNCC1 [Example 568, 3-[[7-[5-chloro-3-methyl-2-(4-piperidyloxy)phenyl]thieno[3,2-b]pyridin-2-yl]methyl]-1-(2,2,2-trifluoroethyl)pyrimidine-2,4-dione] | < 1000 nM |
| Cc1cc(Cl)cc(-c2ccnc3cc(Cn4c(=O)ccn(CC(F)(F)F)c4=O)sc23)c1O[C@@H]1CCN(Cc2cnoc2)C[C@@H]1C [Example 648, 3-[[7-[5-chloro-2-[[(3S,4R)-1-(isoxazol-4-ylmethyl)-3-methyl-4-piperidyl]oxy]-3-methyl-phenyl]thieno[3,2-b]pyridin-2-yl]methyl]-1-(2,2,2-trifluoroethyl)pyrimidine-2,4-dione] | < 1000 nM |
| Cc1cc(Cl)cc(-c2ccnc3cc(Cn4c(=O)ccn(C)c4=O)sc23)c1O[C@H]1CCN(C)C(C)(C)C1 [Example 490] | < 1000 nM |
| Cc1cc(Cl)cc(-c2ccnc3cc(CN4C(=O)CCC4=O)sc23)c1OC1CNCc2ccccc21 (stereo not shown) [Example 429, 1-[[7-[5-chloro-3-methyl-2-(1,2,3,4-tetrahydroisoquinolin-4-yloxy)phenyl]thieno[3,2-b]pyridin-2-yl]methyl]pyrrolidine-2,5-dione] | < 1000 nM |
